Results from PubChem BioAssay (NCI).
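Method: 48-hour compound exposure of cells in 96-well plates, five concentrations, linear interpolation of endpoints. Definition used: TGI = concentration required for complete inhibition of growth.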

Key:
Experiment in all cases: DTP human tumour cell line panel, 48 h
HCT-116 colon = tested on: HCT-116 colon
HL-60(TB) leukemia = tested on: HL-60(TB) leukemia
HT29 colon = tested on: HT29 colon
IGROV1 ovarian = tested on: IGROV1 ovarian
M19-MEL melanoma = tested on: M19-MEL melanoma
NCI-H460 lung = tested on: NCI-H460 lung
RXF 393 renal = tested on: RXF 393 renal
SK-OV-3 ovarian = tested on: SK-OV-3 ovarian
UACC-257 melanoma = tested on: UACC-257 melanoma
BT-549 breast = tested on: BT-549 breast
MDA-MB-231 breast = tested on: MDA-MB-231 breast
NCI/ADR-RES ovarian = tested on: NCI/ADR-RES ovarian

Row | Compound | TGI (HCT-116 colon) [µM] | TGI (HL-60(TB) leukemia) [µM] | TGI (HT29 colon) [µM] | TGI (IGROV1 ovarian) [µM] | TGI (M19-MEL melanoma) [µM] | TGI (NCI-H460 lung) [µM] | TGI (RXF 393 renal) [µM] | TGI (SK-OV-3 ovarian) [µM] | TGI (UACC-257 melanoma) [µM] | TGI (BT-549 breast) [µM] | TGI (MDA-MB-231 breast) [µM] | TGI (NCI/ADR-RES ovarian) [µM]
1 | CCC(CC)n1c(C)nc2c1C(=O)c1ccccc1C2=O | 77.4 | > 100 | > 100 | > 100 | 33.4 | 49.7 | > 100 | > 100 | 72.7 | – | – | –
2 | OC1COC(n2c3ccc(Br)cc3c3ccc4c5ccccc5[nH]c4c32)C(O)C1O (stereo not given) | 12 | 8.75 | 11.4 | 8.21 | – | 18.6 | 7.37 | 17.7 | 19.9 | 26.3 | 7.47 | 19.1
3 | C[Si](C)(OCCS(=O)(=O)O)C1S(=O)(=O)OCCOS1(=O)=O | > 100 | > 100 | > 100 | > 100 | – | > 100 | > 100 | > 100 | > 100 | > 100 | > 100 | > 100
4 | COC(=O)/N=[N+](\[O-])C(c1ccc(OC)cc1)C1CCCCC1 (stereo not given) | 4.41 | 2.78 | 5.62 | > 100 | – | 7.98 | 28.3 | 18.2 | 25.3 | 43 | 32.2 | 15.8
5 | NC(=O)N1N=C2c3ccccc3SC[C@H]2[C@@H]1c1ccccc1 | 28.2 | 55 | 38 | 68.4 | > 100 | 40.8 | 26 | – | 54 | – | – | –
6 | COc1ccc(C(C#N)NNc2nc(C)cc(=O)[nH]2)cc1OC (stereo not given) | > 100 | > 100 | > 100 | > 100 | > 100 | > 100 | > 100 | > 100 | > 100 | – | – | –
7 | C1=C\CCCCN2C[C@H]3CCCC/C=C\CCCCN4CC[C@@H]([C@H](CCCCCC/1)C4)[C@H](C3)C2 | 4.41 | 12.1 | 5.1 | 11.3 | – | 3.68 | 2.99 | 22.8 | 3.28 | 19.1 | 3.01 | 9.89
8 | COc1ccc(N=C(Nc2ccc(OC)cc2)C(=Nc2ccc(OC)cc2)Nc2ccc(OC)cc2)cc1 | > 100 | > 100 | > 100 | > 100 | – | > 100 | > 100 | > 100 | > 100 | > 100 | > 100 | > 100
9 | COc1ccc(-c2cc(-c3cc(OC)c(OC)c(OC)c3)cc(-c3cc4ccccc4oc3=O)n2)cc1 | 18.2 | > 100 | > 100 | 24.6 | – | 17.8 | 16.1 | 14.5 | 63.3 | 27.8 | 8.07 | 31.6
10 | COC(=O)C1C2C=CC(C2)N1[C@@H](C)c1ccccc1 (stereo not given in full) | > 100 | > 100 | > 100 | > 100 | > 100 | > 100 | – | > 100 | > 100 | – | – | –
